Measurements: US11965100B2, “Aggregation-induced emission luminogens useful for cancer cell discrimination and monitoring” (The Hong Kong University of Science and Technology, priority 2020, dated 2024)

Legend:
[1] = Two-photon absorption cross section in DMSO, fluorescein as standard; format: physicochemical
Text: In addition, IVP-02 emits redder fluorescence in solid state than that in solution. To testify the mechanism of the red shift in solid state of IVP-02, its crystal has been analyzed in FIGS. 2G and 2H. The molecules of IVP-02 are anti-parallelly stacked and form multimers in the crystalline state. The short intermolecular stacking distances of the multimers are 3.636 Å, 3.455 Å, 3.394 Å, 3.375 Å, 3.466 Å, and 3.465 Å, indicating strong intermolecular interactions inside the multimers. So the red-shift emission in solid state should be attributed to the intermolecular π-π interactions induced by the short contact between the molecules. […] The TPEF spectra of IVP-02 excited at different pulse wavelengths (780-900 nm) in DMSO were measured in FIG. 2F. The highest […] was 287 GM excited at 800 nm. Such high δ value is beneficial for two-photon imaging in live cells and deep tissues.

[2] = tested on: cancer cells (A549 and HeLa) and normal cells (COS7 and HLF); assay: CLSM imaging of separately stained cancer and normal cells; format: cell-based; details: 2 μM, 30 min, same staining and imaging conditions
Method: FIG. 4 CLSM images of live cancer cells (A549 and HeLa) and normal cells (COS7 and HLF) stained with 2 μM IVP-02 for 30 min, respectively. λex=488 nm, λem=500-650 nm. Scale bar=20 μm.
The bioimaging properties of IVP-02 in live cells were investigated by confocal laser scanning microscopy (CLSM). Cancer cells (A549 and HeLa) and normal cells (COS7 and HLF) were stained with IVP-02, respectively. […] So IVP-02 holds the high potential to differentiate cancer and normal cells. To verify this speculation, cancer and normal cells were co-cultured and stained with IVP-02. […] To precisely confirm the selectivity of IVP-02 to cancer cells, cancer cells A549 and normal cells HLF (A549 and HLF are both human lung cells) were seeded on different cover glasses, respectively. Then the two cover glasses were put in the same dish and stained with IVP-02 at the same time.

[3] = tested on: mitochondria in HeLa and A549 cells; assay: Co-stain with mitochondrial probe MitoTracker Deep Red FM (MTDR); format: cell-based; details: 2 μM dye, 0.2 μM MTDR, HeLa and A549
Method: FIG. 6 CLSM images of live HeLa and A549 cells stained with 2 μM IVP-02 and 0.2 μM MTDR, respectively. IVP-02: λex=488 nm, λem=500-650 nm; MTDR: λex=640 nm, λem=650-700 nm. Scale bar=20 μm.
In the above pictures, filamentous structures in cytoplasm of cancer cells were observed, which were typical morphology of mitochondria. Then co-stain experiments with commercial mitochondrial probe MitoTracker™ Deep Red FM (MTDR) were carried out (FIG. 6).
It was speculated that the membrane permeability of the probe was a key factor for its selectivity to cancer cells, since the plasma membrane of cancer cells was reported to be more permeable than normal cells. Consequently, IVP-02 was modified by lengthening the alkyl chain at the pyridine salt side and indole side, respectively, to tune the membrane permeability. The synthetic route to these new IVP molecules is depicted in Scheme 1. Their chemical structures were fully characterized by ^1H NMR, ^13C NMR, and ^19F NMR. Then cancer cells A549 were stained with the five new molecules, respectively. […] The co-stain experiments with MTDR also confirmed their location in mitochondria in A549 cells in FIG. 7C. In addition to A549 cells, the same experiments were also carried in HeLa cells (FIGS. 8 and 9).

A549 and HeLa cells = assay: Mitochondrion-nucleolus migration on H2O2 treatment; format: cell-based; details: pre-stained 2 μM 30 min, 10 mM H2O2 10 min
Method: FIG. 17 Live A549 and HeLa cells were pre-stained with 2 μM IVP-02 for 30 min, and treated with 10 mM H2O2 for 10 min. λex=488 nm, λem=500-650 nm. Scale bar=20 μm.
Monitoring cell viability is a highly valuable task for the fundamental researches in biology, pathology, and medicine. Then we investigated whether IVP-02 could monitor cell viability. Δψm is a very important indicator to characterize cell viability. With the loss of cell viability, Δψm would decrease, while with the recovery of cell viability, Δψm would also recover to the normal level. […] Carbonyl cyanide m-chlorophenyl hydrazone (CCCP) is a type of protonophore and can cause rapid acidification of mitochondria by collapsing Δψm. Cancer cells A549 were pre-stained with IVP-02 for 30 min. In FIG. 15A, in the beginning, IVP-02 stained mitochondria clearly. […] Hydrogen peroxide (H2O2) can inhibit the oxidation respiratory chain that would cause the loss of cell viability. Then live A549 and HeLa cells were pre-stained with IVP-02, and treated with 10 mM H2O2.

[4] = tested on: A549 co-cultured with COS7 cells, HeLa co-cultured with COS7 cells; assay: CCCP treatment of cancer cells co-cultured with normal cells; format: cell-based; details: A549 or HeLa with COS7, 2 μM, 20 μM CCCP added then removed
Method: FIG. 15 Live A549 cells (A) and live A549 co-cultured with COS 7 cells, live HeLa co-cultured with COS7 cells (B) were pre-stained with 2 μM IVP-02 for 30 min, and treated with 20 μM CCCP for 5 min. Then CCCP was removed away and fresh culture medium was added for another 5 min. λex=488 nm, λem=500-650 nm. Scale bar=20 μm.
To test whether IVP-02 could selectively stain cancer cells and monitor their viability, cancer cells and normal cells were co-cultured and stained with IVP-02. […] After CCCP was removed, the fluorescence in nucleolus disappeared, while the fluorescence in mitochondria recovered gradually. […] The same experiments were also carried out in HeLa cells co-cultured with COS7 cells shown in FIG. 15B and similar phenomena were observed.

A549 cells = assay: Cytotoxicity by standard MTT assay; format: cell-based, human; details: summary statement
Method: (§1) FIG. 22 (A) Two-photon microscopy images of live HeLa cells stained with 2 μM IVP-02 for 30 min. λex=800 nm, λem=495-540 nm. Scale bar=20 μm. (B) Viability of A549 cells after incubation with IVP-02, 04, 06, 22, 42, and 62 at different concentrations for 24 h.
The potential long-term cytotoxicity of bioprobes should be carefully considered for imaging in live cells. Then we studied the cytotoxicity of these IVP molecules to live A549 cells by standard MTT assay. […] While the incubation concentration is 10 μM, the cell viability was between 60% and 80%, showing certain cytotoxicity. Nonetheless, all cell imaging experiments in this work were conducted at low concentration 2 μM, which is reasonable and acceptable.

HeLa cells = assay: Two-photon imaging in live cells; format: cell-based; details: 2 μM, 30 min, λex 800 nm
Method: as §1
Given the high two-photon absorption cross section values of IVP-02 excited by 800 nm, we performed in vitro two-photon imaging of IVP-02 in live HeLa cells.

- Two-photon absorption cross section (δ) ([1]; λex 780 nm): 106 GM
- Two-photon absorption cross section (δ) ([1]; λex 800 nm): 287 GM
- Two-photon absorption cross section (δ) ([1]; λex 820 nm): 173 GM
- Two-photon absorption cross section (δ) ([1]; λex 840 nm): 194 GM
- Two-photon absorption cross section (δ) ([1]; λex 860 nm): 271 GM
- Two-photon absorption cross section (δ) ([1]; λex 880 nm): 227 GM
- Two-photon absorption cross section (δ) ([1]; λex 900 nm): 78 GM
SMILES: CC[n+]1ccc(/C=C/c2c[nH]c3ccccc23)cc1 [IVP-02]
- fluorescence intensity in normal cells versus cancer cells [2]: much weaker than that in cancer cells
- co-localization coefficient with MTDR [3]: around 0.9
- fluorescence after adding H2O2 (A549 and HeLa cells): strong fluorescence was observed in nucleolus
- selective staining and viability monitoring in co-cultured cells [4]: could selectively stain cancer cells and monitor their viability through mitochondrion-nucleolus migration
- cytotoxicity (A549 cells): low cytotoxicity
- two-photon fluorescence imaging (HeLa cells): bright two-photon fluorescence
